How the values were obtained:
adenosine A3 receptor = experiment: Inflammatory cells in bronchial lavage fluid after dust mite allergen; type: in vivo, rabbit; conditions: allergic rabbits, 20 mg oligo, lavage 3 hours later
Procedure: The number of inflammatory cells was determined in their bronchial lavage fluid 3 hours later by counting at least 100 viable cells per lavage. The effect of anti-sense oligos III (SEQ ID NO: 9377) and IV (SEQ ID NO: 9378) upon granulocytes, and upon total cells in bronchial lavage were assessed following exposure to dust mite allergen. […] As is known in the art, granulocytes, especially eosinophils, are the primary inflammatory cells of asthma and the administration of anti-sense oligos III (SEQ ID NO: 9377) and IV (SEQ ID NO: 9378) reduced their numbers by 40% and 66%, respectively. […] This is also an important indicator of anti-inflammatory activity by the present anti-adenosine A3 agents of the invention. Inflammation is known to underlie bronchial hyperresponsiveness and allergen-induced bronchoconstriction in asthma. Both anti-sense oligonucleotides III (SEQ ID NO: 9377) and IV (SEQ ED NO: 9378), which are targeted to the adenosine A3 receptor, are representative of an important new class of anti-inflammatory agents which may be designed to specifically target the lung receptors of each species.

HT-29 SF cells [1] = experiment: Reversal of DHEA-mediated growth inhibition; type: cell-based, human; conditions: 25 μM DHEA; supplement in medium; 48 hours
HT-29 SF cells [2] = experiment: Reversal of DHEA effect on cell cycle; type: cell-based, human; conditions: 25 FM DHEA; supplement in medium; 48 and 72 hours
adenosine A1 receptor [3] = target: T1, adenosine A1 receptor (Oryctolagus cuniculus, UniProt P34970); conditions: mismatch controls; Nyce & Metzger (1997); cited from earlier work
T1 construct: Airway smooth muscle tissue was dissected from each rabbit and a membrane fraction prepared; from tissue; host or cells: rabbit airway smooth muscle, crude plasma membranes
T1 sequence (P34970 1-328): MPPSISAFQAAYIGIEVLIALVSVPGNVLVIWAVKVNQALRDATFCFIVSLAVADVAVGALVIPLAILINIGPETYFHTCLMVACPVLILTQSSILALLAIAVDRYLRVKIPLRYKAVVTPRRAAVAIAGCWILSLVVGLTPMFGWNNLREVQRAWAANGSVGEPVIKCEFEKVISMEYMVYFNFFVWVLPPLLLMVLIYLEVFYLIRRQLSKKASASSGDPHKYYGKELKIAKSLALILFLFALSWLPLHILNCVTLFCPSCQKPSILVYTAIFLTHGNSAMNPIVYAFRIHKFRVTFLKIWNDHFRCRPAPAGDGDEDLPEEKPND

adenosine A1 receptor [4] = experiment: Adenosine-induced bronchoconstriction (PC50 Adenosine) in allergic rabbits; type: in vivo; conditions: allergic rabbits; for effect on PC50 Adenosine value: cross-over experiment, 20 mg total aerosolized oligo
Procedure: A fortuitous hoology between the rabbit and human DNA sequences within the adenosine A1 gene overlapping the initiation codon permitted the use of the phosphorothioate anti-sense oligonucleotides initially designed for use against the human adenosine A1 receptor in a rabbit model. Neonatal New Zealand white Pasteurella-free rabbits were immunized intraperitoneally within 24 hours of birth with 312 antigen units/ml house dust mite (D. farinae) extract (Berkeley Biologicals, Berkeley, Calif.), mixed with 10% kaolin. Immunizations were repeated weekly for the first month and then biweekly for the next 2 months. At 3-4 months of age, eight sensitized rabbits were anesthetized and relaxed with a mixture of ketamine hydrochloride (44 mg/kg) and acepromazine maleate (0.4 mg/kg) administered intramuscularly. The rabbits were then laid supine in a comfortable position on a small molded, padded animal board and intubated with a 4.0-mm intratracheal tube (Mallinkrodt, Inc., Glens Falls, N.Y.). A polyethylene catheter of external diameter 2.4 mm with an attached latex balloon was passed into the esophagus and maintained at the same distance (approximately 16 cm) from the mouth throughout the experiments. The intratracheal tube was attached to a heated Fleisch pneumotachograph (size 00; DOM Medical, Richmond, Va.), and flow was measured using a Validyne differential pressure transducer (Model DP-45161927; Validyne Engineering Corp., Northridge, Calif.) driven by a Gould carrier amplifier (Model 11-4113; Gould Electronic, Cleveland, Ohio). The esophageal balloon was attached to one side of the differential pressure transducer, and the outflow of the intratracheal tube was connected to the opposite side of the pressure transducer to allow recording of transpulmonary pressure. Flow was integrated to give a continuous tidal volume, and measurements of total lung resistance (RL) and dynamic compliance (Cdyn) were calculated at isovolumetric and flow zero points, respectively, using an automated respiratory analyzer (Model 6; Buxco, Sharon, Conn.). Animals were randomized and on Day 1 pretreatment values for PC50 were obtained for aerosolized adenosine. Anti-sense (HAdA1AS) or mismatched control (HAdA1MM) oligonucleotides were dissolved in sterile physiological saline at a concentration of 5000 μg (5 mg) per 1.0 ml. […] Aerosols of either saline, adenosine, or anti-sense or mismatch oligonucleotides were generated by an ultrasonic nebulizer (DeVilbiss, Somerset, Pa.), producing aerosol droplets 80% of which were smaller than 5:m in diameter. In the first arm of the experiment, four randomly selected allergic rabbits were administered anti-sense oligonucleotide and four the mismatched control oligonucleotide. On the morning of the third day, PC50 values (the concentration of aerosolized adenosine in mg/ml required to reduce the dynamic compliance of the bronchial airway 50% from the baseline value) were obtained and compared to PC50 values obtained for these animals prior to exposure to oligonucleotide. Following a 1 week interval, animals were crossed over, with those previously administered mismatch control oligonucleotide now administered anti-sense oligonucleotide, and those previously treated with anti-sense oligonucleotide now administered mismatch control oligonucleotide. Treatment methods and measurements were identical to those employed in the first arm of the experiment. […] For the purpose of calculation, PC50 values for these animals were set at 20 mg/ml. The values given therefore represent a minimum figure for anti-sense effectiveness. Actual effectiveness was higher.
Aerosols of either adenosine (0-20 mglnml), or anti-sense or one of two mismatch oligonucleotides (5 mg/ml) were separately prepared with an ultrasonic nebulizer (Model 646, DeVilbiss, Somerset, Pa.), which produced aerosol droplets, 80% of which were smaller than 5:m in diameter. […]

allergic rabbits [5] = experiment: Allergen-induced airway obstruction in allergic rabbits; type: in vivo, rabbit; conditions: compared with mismatched control; from area under the plotted curve; p<0.05
allergic rabbits [6] = experiment: Allergen-induced bronchial hyperresponsiveness (PC50 Histamine) in allergic rabbits; type: in vivo, rabbit; conditions: compared to mismatched control; from PC50 Histamine value; p<0.05
Procedure: Each allergic rabbit was administered histamine by aerosol to determine their baseline hyperresponsiveness. Aerosols of either saline or hitamine were generated using a DeVilbiss nebulizer (DeVilbiss, Somerset, Pa.) for 30 seconds and then for 2 minutes at each dose employed. The ultrasonic nebulizer produced aerosol droplets of which 80% were <5 micron in diameter. The histamine aerosol was administered in increasing concentrations (0.156 to 80 mg/ml) and measurements of pulmonary function were made after each dose. The […] was then determined by calculating the concentration of histamine (mg/ml) required to reduce the Cdyn 50% from baseline (PC50 Histamine)

Intracellular Adenosine = experiment: In vivo effect on adenosine levels in rat tissues (HPLC); parameters: species or system Fischer 344 rats
Procedure: Folinic acid (50 mg/kg) was administered intraperitoneally once daily for fourteen days. […] Hearts were removed from animals and flash frozen in liquid nitrogen with 10 seconds of death. Liver and lungs were removed en bloc and flash frozen with 30 seconds of death. Brain tissue was subsequently dissected.

[7] = target: B2 bradykinin receptor (rabbit airway smooth muscle membranes) (rabbit) (UniProt Q28642); experiment: radioligand binding, airway smooth muscle membranes; rabbits treated with B2MM mismatch control, 20 mg
Chain of B2 bradykinin receptor (rabbit airway smooth muscle membranes) (rabbit) (Q28642 whole entry): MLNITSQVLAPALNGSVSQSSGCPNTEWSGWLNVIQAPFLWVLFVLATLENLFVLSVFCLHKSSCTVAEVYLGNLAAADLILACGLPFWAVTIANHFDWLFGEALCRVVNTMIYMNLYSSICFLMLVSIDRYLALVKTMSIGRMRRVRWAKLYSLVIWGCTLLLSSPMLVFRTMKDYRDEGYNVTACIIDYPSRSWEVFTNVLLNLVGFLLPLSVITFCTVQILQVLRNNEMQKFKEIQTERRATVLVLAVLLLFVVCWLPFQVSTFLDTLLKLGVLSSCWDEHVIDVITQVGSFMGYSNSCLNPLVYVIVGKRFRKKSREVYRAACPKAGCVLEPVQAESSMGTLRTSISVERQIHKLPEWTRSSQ

[8] = target: B2 bradykinin receptor (rabbit airway smooth muscle membranes) (rabbit) (UniProt Q28642); experiment: radioligand binding, airway smooth muscle membranes; rabbits treated with B2MM mismatch control, 0.2 mg
[9] = target: B2 bradykinin receptor (rabbit airway smooth muscle membranes) (rabbit) (UniProt Q28642); experiment: radioligand binding, airway smooth muscle membranes; rabbits treated with B2A bradykinin receptor anti-sense oligo, 2 mg
[10] = target: B2 bradykinin receptor (rabbit airway smooth muscle membranes) (rabbit) (UniProt Q28642); experiment: radioligand binding, airway smooth muscle membranes; saline control rabbits
[11] = target: B2 bradykinin receptor (rabbit airway smooth muscle membranes) (rabbit) (UniProt Q28642); experiment: radioligand binding, airway smooth muscle membranes; rabbits treated with A1MM1 mismatch control, 2 mg
[12] = target: B2 bradykinin receptor (rabbit airway smooth muscle membranes) (rabbit) (UniProt Q28642); experiment: radioligand binding, airway smooth muscle membranes; rabbits treated with A1 receptor anti-sense oligo, 0.2 mg
[13] = target: B2 bradykinin receptor (rabbit airway smooth muscle membranes) (rabbit) (UniProt Q28642); experiment: radioligand binding, airway smooth muscle membranes; rabbits treated with B2MM mismatch control, 2 mg
[14] = target: B2 bradykinin receptor (rabbit airway smooth muscle membranes) (rabbit) (UniProt Q28642); experiment: radioligand binding, airway smooth muscle membranes; rabbits treated with A1MM1 mismatch control, 20 mg
[15] = target: B2 bradykinin receptor (rabbit airway smooth muscle membranes) (rabbit) (UniProt Q28642); experiment: radioligand binding, airway smooth muscle membranes; rabbits treated with B2A bradykinin receptor anti-sense oligo, 20 mg
[16] = target: B2 bradykinin receptor (rabbit airway smooth muscle membranes) (rabbit) (UniProt Q28642); experiment: radioligand binding, airway smooth muscle membranes; rabbits treated with B2A bradykinin receptor anti-sense oligo, 0.2 mg
[17] = target: B2 bradykinin receptor (rabbit airway smooth muscle membranes) (rabbit) (UniProt Q28642); experiment: radioligand binding, airway smooth muscle membranes; rabbits treated with A1 receptor anti-sense oligo, 20 mg
[18] = target: B2 bradykinin receptor (rabbit airway smooth muscle membranes) (rabbit) (UniProt Q28642); experiment: radioligand binding, airway smooth muscle membranes; rabbits treated with A1 receptor anti-sense oligo, 2 mg
[19] = once daily 14 days, DHEA 300 mg/kg, methyltestosterone 40 mg/kg (120 mg/kg in M + F.A.), folinic acid 50 mg/kg, mean ± SEM
[20] = daily for two weeks, DHEA or high dose methyltestosterone
[21] = methyltestosterone 120 mg/kg, mean ± SEM

With “5′-GGC CCA GGG CCA GCC-31 (antisense GGCCCAGGGCCAGCC; all phosphorothioate, sugars by position and methylation of C not given here) [Oligo IV, targets adenosine A3 receptor mRNA +386 to +401]” the “reduction of granulocyte numbers in bronchial lavage” value (adenosine A3 receptor) was 66% and the “reduction of total number of cells in bronchial lavage fluid” value (adenosine A3 receptor) was 40%.
In the case of `CC(C)CCC[C@@H](C)[C@H]1CC[C@H]2[C@@H]3CC=C4C[C@@H](O)CC[C@]4(C)[C@H]3CC[C@]12C` [CH, cholesterol], the “reversal of DHEA-induced growth inhibition” value (HT-29 SF cells [1]) is reported as “no such effect” and the “prevention of DHEA-induced S phase depletion” value (HT-29 SF cells [2]) is reported as “very little effect at 48 hours and no effect at 72 hours”.
For “5′-GTAGGTGGCGGGCAAGGCGGG-3′ (antisense GTAGGTGGCGGGCAAGGCGGG; phosphorothioate, further chemistry not given here) [Oligo A1MM2, mismatch control for anti-sense oligo I, reference compound]”, the “effect upon any of the targeted receptors (A1, A2 or B2)” value (adenosine A1 receptor [3]) is listed as “absolutely no effect”, the “PC50 Adenosine” value (adenosine A1 receptor [4]; Total Dose 0.2 mg) is listed as 2.51 ± 0.46 mg Adenosine and the “PC50 Adenosine” value (adenosine A1 receptor [4]; Total Dose 2.0 mg) is listed as 3.13 ± 0.71 mg Adenosine. For the same compound, the “PC50 Adenosine” value (adenosine A1 receptor [4]; Total Dose 20 mg) was 3.25 ± 0.34 mg Adenosine, the “effect on PC50 Adenosine value” (adenosine A1 receptor [4]) was “no effect” and the “inhibition of allergen-induced airway obstruction” value (allergic rabbits [5]) was “complete lack of effect”. For the same compound, the “inhibition of allergen-induced BHR” value (allergic rabbits [6]) was “complete lack of effect”.
For `C[C@@](O)(CCO)CC(=O)O` [MVA, mevalonic acid], the “reversal of DHEA-induced growth inhibition” value (HT-29 SF cells [1]) was “partially overcome” and the “prevention of DHEA-induced S phase depletion” value (HT-29 SF cells [2]) was “partially prevented this effect in the initial 48 hours but not after 72 hours”.
For `Nc1nc(=O)c2c([nH]1)NCC(CNc1ccc(C(=O)N[C@@H](CCC(=O)O)C(=O)O)cc1)N2C=O` (mixture of isomers) [Folinic Acid (F.A.), Folinic acid], the “effect on adenosine levels when administered alone” value (Intracellular Adenosine; folinic acid 50 mg/kg intraperitoneally) was “increase in adenosine levels for all organs studied”, the “effect of co-administration on steroid-mediated adenosine depletion” value (Intracellular Adenosine; folinic acid co-administered with DHEA or methyltestosterone) was “completely abrogated steroid-mediated adenosine depletion” and the “Intracellular Adenosine, Brain” value (Intracellular Adenosine; [19]) was 0.72 ± 0.09 nmol/mg protein. For the same compound, the “Intracellular Adenosine, Heart” value (Intracellular Adenosine; [19]) was 12.4 ± 2.1 nmol/mg protein.
For [3H]NPC 17731 (peptide), the Kd [7] was 0.41 nM, the Kd [8] was 0.36 nM and the Kd [9] was 0.34 nM. The Kd [10] was 0.39 nM, the Kd [11] was 0.38 nM and the Kd [12] was 0.34 nM. It also gave a Kd [13] of 0.37 nM, a Kd [14] of 0.35 nM and a Kd [15] of 0.38 nM. For the same compound, the Kd [16] was 0.35 nM, the Kd [17] was 0.39 nM and the Kd [18] was 0.41 nM.
With `C[C@]12CCC(=O)C=C1CC[C@@H]1[C@@H]2CC[C@@]2(C)[C@H]1CC[C@]2(C)O` [Methyltestosterone, methyltestosterone] the “depletion of adenosine in brain” value (Intracellular Adenosine; [20]) was 34%, the “depletion of adenosine in heart” value (Intracellular Adenosine; [20]) was 22% and the “Intracellular Adenosine, Brain” value (Intracellular Adenosine; in vivo) was 0.42 ± 0.06 nmol/mg protein. For the same compound, the “Intracellular Adenosine, Heart” value (Intracellular Adenosine; in vivo) was 8.3 ± 1.0 nmol/mg protein, the “Intracellular Adenosine, Brain” value (Intracellular Adenosine; [21]) was 0.32 ± 0.03 nmol/mg protein and the “Intracellular Adenosine, Heart” value (Intracellular Adenosine; [21]) was 6.0 ± 0.4 nmol/mg protein.
For “5′-GATGGAGGCGGGCATGGCGGG-3 [Oligo A1MM3, reference compound]”, the “effect upon any of the targeted receptors (A1, A2 or B2)” value (adenosine A1 receptor [3]) is given as “absolutely no effect” and the “effect on PC50 Adenosine value” (adenosine A1 receptor [4]) is given as “no effect”.
For `CC(C)=CCC/C(C)=C/CC/C(C)=C/CC/C=C(\C)CC/C=C(\C)CCC=C(C)C` [SQ, squalene], the “reversal of DHEA-induced growth inhibition” value (HT-29 SF cells [1]) was “no such effect”.

Reference: patent US20070021360A1, “Compositions, formulations and kit with anti-sense oligonucleotide and anti-inflammatory steroid and/or obiquinone for treatment of respiratory and lung disesase” (priority 2001, published 2007)
